Consider 1 compound from patent US11724980B2, “Quinones having high capacity retention for use as electrolytes in aqueous redox flow batteries” (President and Fellows of Harvard College, priority 2018, dated 2023).

The nature of this data set: Unbalanced compositionally-symmetric cell cycling. As to the method:
As a direct probe of the effect of O-alkylation of anthraquinone on its chemical stability, 2,6-DBEAQ was cycled potentiostatically in a volumetrically unbalanced compositionally-symmetric cell configuration.
Potentiostatic symmetric cell cycling was performed according to a reported procedure^8 in order to assess the temporal chemical stability of DBEAQ, independent of any variations in apparent capacity as a result of changes to membrane resistance, and in a configuration where there is negligible water or reactant crossover due to the same DBEAQ concentration being used in both electrolytes. […] 5 mL of the resulting electrolyte was used as the capacity-limiting side of a volumetrically unbalanced compositionally-symmetric cell, while the remaining 10 mL was used as the non-capacity-limiting side, i.e., with twice the nominal capacity of the capacity-limiting side. […].
The cycling stability of the DPPEAQ electrolyte was also studied by a previously published symmetric cell method.^24 Although the oxidized form of DPPEAQ is readily soluble at pH 9, proton-coupled electron transfer raises the pH of the electrolyte when it is reduced. Such pH fluctuations can produce misleading results in symmetric cell testing unless the starting pH is above the cutoff point for proton-coupled electron transfer.

`O=C([O-])CCCOc1ccc2c(c1)C(=O)c1ccc(OCCCC(=O)[O-])cc1C2=O.[K+].[K+]` [2,6-DBEAQ, 4,4′-((9,10-anthraquinone-2,6-diyl)dioxy)dibutyric acid]: the “temporal capacity fade rate” value by setting is: (pH 14 (1 M KOH), 0.10 M (2,6-DBEAQ also 0.65 M)) below 0.01 %/day; (pH 14, 0.10 and 0.65 M) below 3.0 %/year.
